What was measured:
[1] = test system: SNB-19; format: cell-based; conditions: SNB-19, CNS
[2] = test system: M14; format: cell-based; conditions: M14, Melanoma
[3] = test system: OVCAR-4; format: cell-based; conditions: OVCAR-4, Ovarian
[4] = test system: TK-10; format: cell-based; conditions: TK-10, Renal
[5] = test system: BT-549; format: cell-based; conditions: BT-549, Breast
[6] = test system: CCRF-CEM
[7] = test system: HL-60(TB)
[8] = test system: K-562; conditions: K-562, Leukemia
[9] = test system: SR
[10] = test system: A549/ATCC
[11] = test system: HOP-62
[12] = test system: HOP-92
[13] = test system: NCI-H23
[14] = test system: NCI-H522
[15] = test system: COLO 205; conditions: COLO 205, Colon
[16] = test system: HT29; conditions: HT29, Colon
[17] = test system: SW-620; conditions: SW-620, Colon
[18] = test system: SNB-75; conditions: SNB-75, CNS
[19] = test system: U251; conditions: U251, CNS
[20] = test system: LOX IMVI
[21] = test system: MALME-3M; conditions: Melanoma
[22] = test system: SK-MEL-2; conditions: SK-MEL-2, Melanoma
[23] = test system: UACC-257; conditions: UACC-257, Melanoma
[24] = test system: UACC-62; conditions: UACC-62, Melanoma
[25] = test system: OVCAR-8; conditions: OVCAR-8, Ovarian
[26] = test system: NCI/ADR-RES
[27] = test system: A498; conditions: A498, Renal
[28] = test system: SN12C
[29] = test system: UO-31; conditions: UO-31, Renal
[30] = test system: PC-3; conditions: PC-3, Prostate
[31] = test system: HS 578T
[32] = test system: T-47D
[33] = read-out: 50% lethal concentration (LC50)
[34] = read-out: 50% lethal concentration (LC50), Leukemia
[35] = read-out: 50% lethal concentration (LC50), Breast

C=C1CCC2C3(C)COC(c4cn(-c5ccccc5)nc4-c4cccc(Cl)c4)OC3CCC2(C)C1CC=C1C(=O)OCC1O (centres unmarked) [1d]
GI50 [1]: 2.24 µM | Total growth inhibition (TGI) [1]: 6.04 µM | CC50 [1, 33]: 54.8 µM | GI50 [2]: 1.69 µM | Total growth inhibition (TGI) [2]: 3.88 µM | GI50 [3]: 2.09 µM | CC50 [3, 33]: > 100 µM | GI50 [4]: 2.14 µM | Total growth inhibition (TGI) [4]: 4.56 µM | CC50 [4, 33]: 9.71 µM | GI50 [5]: 1.57 µM | Total growth inhibition (TGI) [5]: 3.63 µM | GI50 ([6]; Leukemia): 1.32 µM | Total growth inhibition (TGI) ([6]; Leukemia): 16.3 µM | CC50 [6, 34]: > 100 µM | GI50 ([7]; Leukemia): 1.38 µM | Total growth inhibition (TGI) ([7]; Leukemia): 4.97 µM | CC50 [7, 34]: > 100 µM | GI50 [8]: 2.41 µM | CC50 [8, 33]: > 100 µM | GI50 ([9]; Leukemia): 1.29 µM | Total growth inhibition (TGI) ([9]; Leukemia): 4.03 µM | CC50 [9, 34]: > 100 µM | Total growth inhibition (TGI) ([10]; Non-Small Cell Lung): 11.3 µM | GI50 ([10]; Non-Small-Cell Lung): 2.82 µM | CC50 ([10]; read-out: 50% lethal concentration (LC50), Non-Small Cell Lung): 69.1 µM | Total growth inhibition (TGI) ([11]; HOP-62, Non-Small Cell Lung): 4.29 µM | GI50 ([11]; HOP-62, Non-Small-Cell Lung): 1.78 µM | CC50 ([11]; read-out: 50% lethal concentration (LC50), HOP-62, Non-Small Cell Lung): > 100 µM | Total growth inhibition (TGI) ([12]; HOP-92, Non-Small Cell Lung): 3.11 µM | GI50 ([12]; HOP-92, Non-Small-Cell Lung): 1.56 µM | CC50 ([12]; read-out: 50% lethal concentration (LC50), HOP-92, Non-Small Cell Lung): 6.2 µM | Total growth inhibition (TGI) ([13]; NCI-H23, Non-Small Cell Lung): 3.82 µM | GI50 ([13]; NCI-H23, Non-Small-Cell Lung): 1.75 µM | CC50 ([13]; read-out: 50% lethal concentration (LC50), NCI-H23, Non-Small Cell Lung): 8.31 µM | Total growth inhibition (TGI) ([14]; NCI-H522, Non-Small Cell Lung): 2.95 µM | GI50 ([14]; NCI-H522, Non-Small-Cell Lung): 1.54 µM | CC50 ([14]; read-out: 50% lethal concentration (LC50), NCI-H522, Non-Small Cell Lung): 5.65 µM | GI50 [15]: 1.98 µM | Total growth inhibition (TGI) [15]: 4.24 µM | GI50 [16]: 1.49 µM | Total growth inhibition (TGI) [16]: 3.13 µM | CC50 [16, 33]: 6.57 µM | GI50 [17]: 1.53 µM | Total growth inhibition (TGI) [17]: 3.4 µM | CC50 [17, 33]: 7.55 µM | GI50 [18]: 1.12 µM | Total growth inhibition (TGI) [18]: 3.14 µM | CC50 [18, 33]: 8.84 µM | GI50 [19]: 1.59 µM | Total growth inhibition (TGI) [19]: 3 µM | GI50 ([20]; Melanoma): 1.61 µM | Total growth inhibition (TGI) ([20]; Melanoma): 2.97 µM | CC50 ([20]; read-out: 50% lethal concentration (LC50), Melanoma): 5.5 µM | GI50 [21]: 1.47 µM | Total growth inhibition (TGI) [21]: 2.85 µM | GI50 [22]: 1.57 µM | Total growth inhibition (TGI) [22]: 3.05 µM | GI50 [23]: 1.77 µM | Total growth inhibition (TGI) [23]: 3.57 µM | GI50 [24]: 1.71 µM | Total growth inhibition (TGI) [24]: 3.42 µM | CC50 [24, 33]: 6.83 µM | GI50 [25]: 1.53 µM | Total growth inhibition (TGI) [25]: 3.44 µM | CC50 [25, 33]: > 100 µM | GI50 ([26]; Ovarian): 1.88 µM | Total growth inhibition (TGI) ([26]; Ovarian): 4.77 µM | CC50 ([26]; read-out: 50% lethal concentration (LC50), Ovarian): > 100 µM | GI50 [27]: 2.9 µM | Total growth inhibition (TGI) [27]: 11.4 µM | CC50 [27, 33]: 38.1 µM | GI50 ([28]; Renal): 1.65 µM | Total growth inhibition (TGI) ([28]; Renal): 3.62 µM | CC50 ([28]; read-out: 50% lethal concentration (LC50), Renal): 7.92 µM | GI50 [29]: 1.3 µM | Total growth inhibition (TGI) [29]: 2.71 µM | CC50 [29, 33]: 5.63 µM | GI50 [30]: 2.07 µM | CC50 [30, 33]: > 100 µM | GI50 ([31]; Breast): 1.91 µM | Total growth inhibition (TGI) ([31]; Breast): 4.85 µM | CC50 [31, 35]: > 100 µM | GI50 ([32]; Breast): 1.63 µM | Total growth inhibition (TGI) ([32]; Breast): 4.76 µM | CC50 [32, 35]: > 100 µM
